These results are taken from US20230257367A1, “NOVEL THYROID HORMONE BETA RECEPTOR AGONIST” (Chengdu Kanghong Pharmaceutical Co., Ltd., priority 2020, published 2023).

The target in data set [1] is T1, TRα-LBD/RXRα (Homo sapiens, UniProt P10827).
T1 construct: TRα-LBD (Invitrogen, PV4762), or TRβ-LBD (Invitrogen, PV4764) with a GST tag were used; purchased Invitrogen (TRα-LBD); Pharmaron (RXRα) PV4762
Briefly: In vitro binding experiment (TR-FRET SRC2-2 co-activator peptide recruitment), TRα. The class given is biochemical. As to conditions: 4 h incubation at room temperature.

Data set [2] has as its system primary hepatocyte. Nature of the data set: Hepatotoxicity detection in vitro (CellTiter-Glo). The class given is cell-based, human. The following applies: primary hepatocytes. The procedure:
Information of Primary Hepatocyte
Step 1: a test substance was prepared into a 200 mM DMSO stock solution, and then subjected to 3-times gradient continuous dilution by 7 concentrations, then 1.5 μL of each of the solutions of the 8 concentrations was added into 498.5 μL of incubation culture medium (with a composition referring to Table 5, directly mixed evenly) to prepare a working solution, and the incubation culture medium was preheated at 37° C. before preparation. DMSO was used as a solvent control. DMSO contents in the working solution and the solvent control were both 0.3 vol %. Concentrations of compounds were as follows:
Step 2: Plate Inoculation and Cell Culture
Second Step: Plate Inoculation and Culture of Cells
1) A tube of hepatocytes of the donor used in the experiment preserved at ultra-low temperature was taken, and the hepatocytes were ensured to be still frozen at low temperature before resuscitation. The hepatocytes were quickly placed in a water bath at 37° C. and gently shaken until all ice crystals were dispersed, and were transferred to a biosafety cabinet after spraying 70 vol % ethanol.
2) Contents of hepatocyte tubules were poured into a 50 mL centrifuge tube containing 50 mL of resuscitation culture medium (with a composition referring to Table 3, directly mixed evenly), and centrifuged at 80 g for 8 minutes. After centrifugation, the resuscitation culture medium was sucked out and an inoculation culture medium was added (with a composition referring to Table 4, directly mixed evenly). The cells were counted by AO/PI staining to obtain a cell suspension with a cell density of 0.2×10^6 cells per milliliter.
3) The cell suspension above was inoculated into a 96-well plate coated with collagen I, with 100 μL per well. The culture plate was placed in a 5% CO2 incubator with 95% relative humidity to culture for 4 hours to 6 hours.
4) After incubation for 4 hours to 6 hours, the state of the cells was observed under microscope. The culture plate was shaken gently, the inoculation culture medium was sucked out, and 100 μL of incubation culture medium was added into each well (with a composition referring to Table 5). A toxicity test could be carried out after culturing in the incubator for 18 hours to 20 hours.
5) Before administration, the morphology of the cells was observed under microscope. The culture medium in the culture plate was sucked out, and 100 μL of solvent control (DMSO), or test substance working solution was added into each well. Three parallel samples were tested under each condition.
6) The newly prepared working solution or solvent control was used for solution exchange every 24 hours after dosing.
After the working solution acted for 48 hours, the morphology of the cells was observed under microscope for later use.
Step 3: Cytotoxicity Detection
1) A CellTiter-Glo (Promega, article number G9243) reagent stored at −20° C. was melted in a water bath at 37° C.
2) After the cell culture plate obtained above was incubated for 48 hours, 50 μL of CellTiter-Glo solution was directly added into each experimental well.
3) The cell culture plate was vortexed at 400 rpm for 10 minutes, and incubated at room temperature to stabilize a luminescence signal.
After 10 minutes 100 μL of reaction solution was sucked from each well and transferred to a new white nontransparent-bottom flat plate (Corning 96-well plate Cat No. 3917). The
chemiluminescence value of each well was read by a microplate reader (a luminescence value of the white nontransparent-bottom flat plate was recorded as “a luminescence valueblank”; and a luminescence value of the solvent control was recorded as “a luminescence valuesolvent”).
Cell viability(%)=[(luminescence valueto-be-tested compound−luminescence valueblank)/(luminescence valuesolvent−luminescence valueblank)]×100% […]
(In ATP-based viability assays light output follows the ATP content of the culture.)

T1 sequence (P10827 1-410 isoform P10827-2, other chains not shown): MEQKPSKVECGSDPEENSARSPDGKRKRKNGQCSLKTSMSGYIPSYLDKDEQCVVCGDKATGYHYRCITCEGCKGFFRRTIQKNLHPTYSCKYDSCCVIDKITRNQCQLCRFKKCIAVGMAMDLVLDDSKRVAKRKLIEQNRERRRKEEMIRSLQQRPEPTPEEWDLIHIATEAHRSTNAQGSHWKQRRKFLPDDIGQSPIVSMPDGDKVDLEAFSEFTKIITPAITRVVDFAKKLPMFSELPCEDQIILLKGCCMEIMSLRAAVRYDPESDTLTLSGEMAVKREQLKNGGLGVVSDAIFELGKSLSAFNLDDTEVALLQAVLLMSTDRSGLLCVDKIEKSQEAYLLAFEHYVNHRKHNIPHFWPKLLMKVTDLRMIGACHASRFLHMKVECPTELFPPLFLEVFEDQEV
T1 sequence (P19793 whole entry partner, other chains not shown, the tested form may be a part): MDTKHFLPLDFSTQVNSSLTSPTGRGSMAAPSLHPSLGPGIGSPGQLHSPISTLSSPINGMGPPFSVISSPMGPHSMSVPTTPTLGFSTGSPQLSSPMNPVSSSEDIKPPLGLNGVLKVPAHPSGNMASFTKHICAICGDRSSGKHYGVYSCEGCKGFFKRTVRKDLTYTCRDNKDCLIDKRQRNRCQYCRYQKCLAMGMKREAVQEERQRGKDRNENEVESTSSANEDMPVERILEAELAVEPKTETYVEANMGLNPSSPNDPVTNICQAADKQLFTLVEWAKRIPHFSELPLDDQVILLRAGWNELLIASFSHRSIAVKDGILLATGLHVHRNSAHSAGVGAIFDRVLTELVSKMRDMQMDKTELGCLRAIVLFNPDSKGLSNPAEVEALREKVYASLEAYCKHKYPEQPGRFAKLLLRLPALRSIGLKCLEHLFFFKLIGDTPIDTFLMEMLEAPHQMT

In data set [1], `CC(C)c1nc(Oc2c(Cl)cc(-n3ncc(=O)[nH]c3=O)cc2Cl)ncc1O` [KH06] came in with an EC50 of 0.094 µM. Besides, the IC50 in data set [2] (Homo sapiens, Hepatocyte, cell viability after 48 hours) turned out to be 207 µM. For the same compound, the “Cell activity at the highest concentration (%)” value in data set [2] (48 hours, highest working solution concentration 600 μM) was 4.50%.

One may read the EC50 as the concentration needed to bring the measured effect to its halfway point. Higher therefore signals a need for much substance. The IC50 is the midpoint of a concentration-inhibition curve.
